# Assay results: patent publication US5916906A, “Compositions comprising nicotinylalanine and an inhibitor of glycine conjugation or vitamin B6” (priority 1997, dated 1999)
# Several values for one entry are separate records, joined by “and”; a condition that tells them apart may be missing. Equal values may be shown once.
# Key:
# Type in all cases: in vivo, C57BL/6 mice
# [1] = tested on: LP-BM5 MuLV Retrovirus; test: MAIDS model, interim sacrifices: body weight, disease score, spleen weight; conditions: for Body Wt. / Spleen Wt.: individual mouse; for Disease Score: scores 0 through +4, individual mouse
# Protocol: (§1) This study was designed to determine whether nicotinylalanine (NAL) alone or in combination with acetylsalicylic acid (ASA) will prevent or alter the course of murine retroviral-induced immunodeficiency disease, MAIDS, in C57BL/6 female mice. The LP-BM5 MuLV virus used for these studies was prepared from chronically infected SC-1 cells (ATCC Cat. No. CRL-1404), as described by Yetter R. A. et al., J. Exp. Med., 168, 623-635, 1988. […] The MAIDS model is well characterized and reproducible in the laboratory, as described by Mosier D. E. et al., J. Exp. Med. 161, 766-784, 1985.
# (§2) Measures of disease progression followed the methods developed by Eiseman et al., 1991 (Ibid). Disease scores 0 through +4 are based upon body weight gain and palpable alterations in the size of lymph nodes and spleen. Severity of disease is scored as follows: 0.5, increased body weight and variably detected increase in size of any one lymph node or spleen; +1, clearly detectable increase in the size of a lymph node and spleen; +2, readily detectable (greater than 0.3 cm in diameter) increased size in more than one lymph node and, in particular, enlargement of subcervical, brachial or axillary nodes; +3, increased size of all palpable nodes and palpable splenomegaly (≥0.3 grams); +4, advanced disease with extensive splenomegaly (>1.0 grams) and lymphadenopathy.
# (§3) Specific pathogen free, female C57BL/6 mice (5 weeks of age) were purchased from Charles River Breeding Laboratories. All mice were allowed one week to acclimate to housing facilities prior to randomization for study. Animals were marked for identification and placed in microisolator cages with identifying cards (5 mice/cage), where autoclaved food and water were provided ad libitum.
# (§4) NAL and ASA were formulated under sterile conditions according to preformulation methods outlined in Remington's Pharmaceutical Sciences Handbook, 18th Edition, 1990, ibid). NAL and ASA were dissolved in sterile phosphate-buffered normal saline solution (i.e., vehicle; Biofluids Inc., Lot 413054), adjusted to between pH 7.2 to 7.4 with […], sterilized by filtration through 0.2 μm bottle-type filters, and dispersed into sterile glass vials, sealed and capped (Wheaton Inc.).
# (§5) Except for Group 6 (which began treatment 2 weeks after virus inoculation),test drug injections began 1 day after virus infection and continued every day except weekends (i.e., 5 times per week).
# Disease progression was monitored by measuring serum IgM levels by ELISA on all animals at monthly intervals during the course of disease. Three mice per group were randomly selected and sacrificed at monthly intervals (end of month one through four) of the study. Disease scores for each animal were recorded weekly based upon palpation of lymph nodes and spleen. Complete gross necropsies were performed on these euthanized animals and the ratio of recorded spleen to body weights was an additional indicator of diseases progression. […] Infection was quantified by ecotropic virus XC plaque assays of spleens removed from the interim sacrificed animals.
# [2] = tested on: LP-BM5 MuLV Retrovirus; test: MAIDS model: disease stage score, attainment of disease score 4 (Kaplan-Meier) and survival up to 28 weeks
# Source text: Each value represents the mean and one standard standard deviation for groups of surviving mice (at least 4 mice per group) at termination of the study, following 28 weeks post-inoculation by LP-BM5 virus.
# (§6) Each group consisted of 8 mice, except for the virus-negative control group which consisted of 6 mice.
# as §6, §1, §2, §3, §4, §5
# [3] = tested on: LP-BM5 Retrovirus; test: Ecotropic virus XC plaque assay on spleen cells of treated LP-BM5 infected mice; conditions: four months after inoculation, mean ± standard deviation, NAL 400 mg/kg
# Source text: FIG. 4A and 4B: Mean Number of Virus Particles as Determined from Plaques per Million Spleen Cells from Serially Sacrificed Mice at Monthly Intervals After Inoculation with LP-BM5 Retrovirus. […] Each ml of the virus pool contained 3.66 log PFU ecotropic virus as determined by XC Plaque Assay. Treatment in all groups began one day after virus inoculation, except for the NAL 400 Delay Group which began treatment two weeks after virus inoculation. Groups and treatments are as follows:
# FIG. 4B: LP-BM5+PBS=as described above; NAL 400=virus positive, plus daily (M-F) i.p. injections of nicotinylalanine (400 mg/kg) only; NAL 400 delay=nicotinylalanine (400 mg/kg) only, injected i.p. daily (M-F) beginning two weeks after virus inoculation.
# Ecotropic virus titers were determined using the XC plaque assay (Yetter R. A. et al., J. Exp. Med., 168, 623-635, 1988) and were performed on spleen cells cultured from all serially killed mice at the interim sacrifices as shown in Tables 2-A & 2-B). Spleens were weighed and cells were extruded with sterile media (RPMI 1640, with gentamycin and 10% fetal calf serum). Serial 10-fold dilutions were made and one ml of each dilution was overlayered onto a monolayer of SC-1 cells treated with 4 μg/ml polybrene. After 24 hours, the media was removed and washed and the SC-1 cells were fed with fresh media. When the monolayer was confluent, the plates were irradiated with UV light at 60 ergs/mm^2 /sec and overlayered with XC cells. When the XC cell layer was confluent, the plates were fixed with methanol and stained with Giemsa Stain. Plaques were counted on an Artek colony counter and confirmed by phase contrast microscopy. Values presented in FIG. 4A represent the mean of adjusted samples at three dilutions expressed as plaques per million spleen cells. Mean and standard deviations corresponding to each of the data points in FIGS. 4A and 4B are derived from three mice serially killed at interim sacrifice times.
# [4] = Plasma nicotinamide levels in LP-BM5 infected mice (HPLC); conditions: NAL 400 mg/kg; for Mean Plasma Nicotinamide Level: virus-positive, mean ± SD
# Protocol: Mice were sacrificed on Tuesdays at monthly intervals after
# inoculation, approximately 24 hours after their last treatment.
# At time of sacrifice, blood was collected by cardiac puncture and stored
# Results are expressed as mean concentrations ± standard deviation in
# [5] = 1 month postinoculation, NAL 200 mg/kg i.p. (no ASA)
# [6] = 1 month postinoculation, NAL 400 mg/kg i.p., delayed Rx 2 weeks
# [7] = 1 month postinoculation, treatment from day 1: NAL 400 mg/kg i.p., ASA 20 mg/kg i.p., AZT 1 mg/ml in drink water
# [8] = 2 months postinoculation, NAL 200 mg/kg i.p. (no ASA)
# [9] = 2 months postinoculation, NAL 400 mg/kg i.p., delayed Rx 2 weeks
# [10] = 2 months postinoculation, treatment from day 1: NAL 400 mg/kg i.p., ASA 20 mg/kg i.p., AZT 1 mg/ml in drink water
# [11] = 3 months postinoculation, NAL 400 mg/kg i.p., delayed Rx 2 weeks
# [12] = 3 months postinoculation, treatment from day 1: NAL 400 mg/kg i.p., ASA 20 mg/kg i.p., AZT 1 mg/ml in drink water
# [13] = 4 months postinoculation, NAL 400 mg/kg i.p., delayed Rx 2 weeks
# [14] = 4 months postinoculation, treatment from day 1: NAL 400 mg/kg i.p., ASA 20 mg/kg i.p., AZT 1 mg/ml in drink water
# [15] = NAL 400 mg/kg delayed by two weeks, FIG. 5
structure (smiles),measurement,setting,value
"NC(CC(=O)c1cccnc1)C(=O)O (racemic) [NAL, γ-(3-pyridyl)-γ-oxo-α-aminobutyrate]",Body Wt.,[1]; [5],21.9 Grams and 21.8 Grams and 23.4 Grams
same,Spleen Wt.,[1]; [5],0.080 Grams and 0.257 Grams and 0.123 Grams
same,Body Wt.,[1]; [6],20.4 Grams and 20.5 Grams and 22.3 Grams
same,Spleen Wt.,[1]; [6],0.103 Grams and 0.151 Grams and 0.136 Grams
same,Body Wt.,[1]; [7],21.3 Grams and 20.4 Grams and 19.6 Grams
same,Spleen Wt.,[1]; [7],0.186 Grams and 0.309 Grams and 0.159 Grams
same,Disease Score,[1]; [5],0 and 1 and 0.5
same,Disease Score,[1]; [6],0 and 0.5
same,Disease Score,[1]; [7],1
same,Body Wt.,[1]; [8],22.5 Grams and 23.8 Grams and 22.2 Grams
same,Spleen Wt.,[1]; [8],0.229 Grams and 0.098 Grams and 0.302 Grams
same,Body Wt.,[1]; [9],21.2 Grams and 20.0 Grams and 26.6 Grams
same,Spleen Wt.,[1]; [9],0.168 Grams and 0.086 Grams and 0.320 Grams
same,Body Wt.,[1]; [10],21.6 Grams and 24.0 Grams
same,Spleen Wt.,[1]; [10],0.289 Grams and 0.216 Grams and 0.125 Grams
same,Disease Score,[1]; [8],1 and 0.5 and 2
same,Disease Score,[1]; [9],1 and 0 and 2
same,Disease Score,[1]; [10],1 and 2
same,Body Wt.,[1]; [11],23.8 Grams and 25.3 Grams and 26.3 Grams
same,Spleen Wt.,[1]; [11],0.090 Grams and 0.112 Grams and 0.175 Grams
same,Body Wt.,[1]; [12],23.6 Grams and 22.3 Grams and 24.6 Grams
same,Spleen Wt.,[1]; [12],0.112 Grams and 0.341 Grams and 0.086 Grams
same,Disease Score,[1]; [11],0 and 0.5 and 1
same,Disease Score,[1]; [12],0.5 and 2
same,Body Wt.,[1]; [13],26.8 Grams and 27.5 Grams and 24.5 Grams
same,Spleen Wt.,[1]; [13],0.399 Grams and 0.157 Grams and 0.083 Grams
same,Body Wt.,[1]; [14],27.6 Grams and 28.0 Grams and 25.5 Grams
same,Spleen Wt.,[1]; [14],0.119 Grams and 1.030 Grams and 0.240 Grams
same,Disease Score,[1]; [13],3 and 1 and 0.5
same,Disease Score,[1]; [14],0.5 and 4 and 2
same,Survival vs LP-BM5 virus-positive control (log-rank p),"[2]; NAL 400 mg/kg after two week delay, FIG. 6",0.2492
same,"Retardation of disease progression (score +4), Log-Rank p",[2]; [15],0.0469
same,"Retardation of disease progression (score +4), Wilcoxon p",[2]; [15],0.0258
same,Survival vs vehicle-injected control (Wilcoxon p),"[2]; NAL 400 mg/kg delayed by two weeks, FIG. 6",0.1756
same,Survival vs LP-BM5 virus-positive control (log-rank p),"[2]; treatment from day 1, FIG. 6",0.9621
same,"Virus titer, plaques per million spleen cells","[3]; ASA 20 mg/kg, AZT 1 mg/mL","3,410±4,606 plaques per million spleen cells"
same,"Virus titer, plaques per million spleen cells",[3]; delayed two weeks,796±463 plaques per million spleen cells
same,"Ratio of plasma nicotinamide mean to placebo (PBS Control, Group 1)","[4]; Month 1, ASA 20 mg/kg, AZT as in Table 4",1.06
same,"Ratio of plasma nicotinamide mean to placebo (PBS Control, Group 1)","[4]; Month 1, delayed 2 weeks",1.16
same,Mean Plasma Nicotinamide Level,"[4]; Month 1, ~24 h after last treatment, ASA 20 mg/kg, AZT printed 1 mg/kg",3.4 ± 0.9 nmol/mL
same,Mean Plasma Nicotinamide Level,"[4]; Month 1, delayed Rx 2 weeks",3.7 ± 1.1 nmol/mL
same,"Ratio of plasma nicotinamide mean to placebo (PBS Control, Group 1)","[4]; Month 2, ASA 20 mg/kg, AZT as in Table 4",1.13
same,"Ratio of plasma nicotinamide mean to placebo (PBS Control, Group 1)","[4]; Month 2, delayed 2 weeks",1.49
same,Mean Plasma Nicotinamide Level,"[4]; Month 2, ~24 h after last treatment, ASA 20 mg/kg, AZT printed 1 mg/kg",4.4 ± 0.5 nmol/mL
same,Mean Plasma Nicotinamide Level,"[4]; Month 2, delayed Rx 2 weeks",5.8 ± 0.5 nmol/mL
same,"Ratio of plasma nicotinamide mean to placebo (PBS Control, Group 1)","[4]; Month 3, ASA 20 mg/kg, AZT as in Table 4",1.35
same,"Ratio of plasma nicotinamide mean to placebo (PBS Control, Group 1)","[4]; Month 3, delayed 2 weeks",1.65
same,Mean Plasma Nicotinamide Level,"[4]; Month 3, ~24 h after last treatment, ASA 20 mg/kg, AZT printed 1 mg/kg",3.1 ± 0.4 nmol/mL
same,Mean Plasma Nicotinamide Level,"[4]; Month 3, delayed Rx 2 weeks",3.8 ± 0.1 nmol/mL
same,"Ratio of plasma nicotinamide mean to placebo (PBS Control, Group 1)","[4]; Month 4, ASA 20 mg/kg, AZT as in Table 4",1.88
same,"Ratio of plasma nicotinamide mean to placebo (PBS Control, Group 1)","[4]; Month 4, delayed 2 weeks",1.84
same,Mean Plasma Nicotinamide Level,"[4]; Month 4, ~24 h after last treatment, ASA 20 mg/kg, AZT printed 1 mg/kg",4.7 ± 0.5 nmol/mL
same,Mean Plasma Nicotinamide Level,"[4]; Month 4, delayed Rx 2 weeks",4.6 ± 0.3 nmol/mL
